{
  "source": "paper PMC5794198",
  "about": "“Inhibitors of Trypanosoma cruzi Sir2 related protein 1 as potential drugs against Chagas disease” (PLoS Neglected Tropical Diseases, 2018)",
  "key": {"[1]": {"test_system": "Neurons", "assay": "MTT cytotoxicity on neurons", "assay_type": "cell-based", "experimental": "(§1) To evaluate toxicity towards mammalian cell lines (hepatocytes (Seralab), neurons and MDCK cells (ATCC); a renal cell line from dogs), all the compounds were assayed with MTT [66]. Additionally, for cardiotoxicity evaluation, where toxic effects in cardiomyocytes could be affecting their function before being lethal, a hERG assay was performed according to the manufacturer’s protocol Predictor hERG Fluorescence Polarization Assay (Invitrogen). Briefly, inhibition of hERG channel was analysed by competition of BNIPSpd and a high-affinity red fluorescent hERG channel ligand. BNIPSpd (9) was mixed with the ligand and membranes containing hERG channel, incubated for 2 hrs at RT and the fluorescence polarization was measured using 530 / 590 nm ex/em filters using the Synergy 2 plate reader (Biotek)."}, "[2]": {"molecular_target": "TcSir2rp1 (Trypanosoma cruzi, UniProt Q4DVL9)", "sequence (Q4DVL9 entry or part of it)": "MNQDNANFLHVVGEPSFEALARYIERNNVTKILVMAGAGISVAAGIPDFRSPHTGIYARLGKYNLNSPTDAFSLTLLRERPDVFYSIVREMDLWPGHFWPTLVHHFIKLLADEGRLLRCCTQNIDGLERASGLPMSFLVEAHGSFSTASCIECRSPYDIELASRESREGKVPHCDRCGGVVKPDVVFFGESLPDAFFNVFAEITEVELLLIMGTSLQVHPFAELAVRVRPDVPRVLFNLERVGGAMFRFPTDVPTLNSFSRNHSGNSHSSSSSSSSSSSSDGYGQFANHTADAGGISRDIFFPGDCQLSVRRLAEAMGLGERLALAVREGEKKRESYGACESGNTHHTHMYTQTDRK", "assay": "TcSir2rp1 NAD+-dependent deacetylase fluorimetric assay (CycLex kit)", "assay_type": "biochemical"}, "[3]": {"test_system": "MDCK cells", "assay": "MTT cytotoxicity on MDCK cells", "assay_type": "cell-based", "conditions": "MTT", "experimental": "as §1"}, "[4]": {"assay": "MTT cytotoxicity on MDCK cells", "assay_type": "cell-based", "conditions": "dog, MDCK; CC50 cell line / EC50 T. cruzi; read-out: Selectivity Index, MDCK cells", "experimental": "as §1"}, "[5]": {"molecular_target": "T1, hERG channel (Homo sapiens, UniProt Q12809)", "T1 construct": "purchased Invitrogen", "T1 sequence (Q12809 whole entry)": "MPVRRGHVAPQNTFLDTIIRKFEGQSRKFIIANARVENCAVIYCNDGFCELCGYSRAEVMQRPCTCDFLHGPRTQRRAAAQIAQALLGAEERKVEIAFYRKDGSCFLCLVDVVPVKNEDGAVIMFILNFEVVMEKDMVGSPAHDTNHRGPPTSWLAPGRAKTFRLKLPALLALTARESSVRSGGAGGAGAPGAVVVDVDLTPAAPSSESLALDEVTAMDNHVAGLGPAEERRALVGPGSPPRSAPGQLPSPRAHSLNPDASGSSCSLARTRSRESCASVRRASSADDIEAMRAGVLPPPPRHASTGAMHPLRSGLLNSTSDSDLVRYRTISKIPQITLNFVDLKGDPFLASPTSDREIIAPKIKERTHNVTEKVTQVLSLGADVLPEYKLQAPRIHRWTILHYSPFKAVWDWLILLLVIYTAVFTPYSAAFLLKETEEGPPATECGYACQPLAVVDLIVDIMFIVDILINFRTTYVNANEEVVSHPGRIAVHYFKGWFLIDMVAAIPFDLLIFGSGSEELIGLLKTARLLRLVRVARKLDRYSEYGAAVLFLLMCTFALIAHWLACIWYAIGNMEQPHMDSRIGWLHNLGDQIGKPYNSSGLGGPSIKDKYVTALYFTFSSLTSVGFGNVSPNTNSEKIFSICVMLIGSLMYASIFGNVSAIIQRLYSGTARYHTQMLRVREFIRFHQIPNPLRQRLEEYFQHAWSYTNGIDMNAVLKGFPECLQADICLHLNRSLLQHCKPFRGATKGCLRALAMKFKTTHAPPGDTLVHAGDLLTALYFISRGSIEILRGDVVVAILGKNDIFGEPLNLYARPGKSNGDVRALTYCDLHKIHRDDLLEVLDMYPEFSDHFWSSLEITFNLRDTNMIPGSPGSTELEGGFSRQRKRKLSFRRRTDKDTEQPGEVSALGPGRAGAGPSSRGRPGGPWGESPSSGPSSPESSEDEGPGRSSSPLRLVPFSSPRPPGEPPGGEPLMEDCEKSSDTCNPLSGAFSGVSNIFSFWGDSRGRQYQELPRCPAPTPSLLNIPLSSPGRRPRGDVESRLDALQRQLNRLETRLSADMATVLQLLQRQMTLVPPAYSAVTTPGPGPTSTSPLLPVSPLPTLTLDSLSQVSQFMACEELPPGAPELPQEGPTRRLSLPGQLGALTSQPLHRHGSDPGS", "assay": "Predictor hERG Fluorescence Polarization Assay", "assay_type": "binding", "experimental": "as §1"}, "[6]": {"test_system": "Neurons", "assay": "HCS injury score panel in primary neurons", "assay_type": "cell-based", "experimental": "In vitro assays were also performed in primary cells (hepatocytes and neurons) to evaluate BNIPSpd (9) potential toxicity: (a) host cell nuclei counting after HOECHST staining, (b) viability by measuring the metabolism of WST-8 probe, (c) apoptosis induction through caspase 3/7 activation, (d) evaluation of mitochondrial dysfunction by measuring the membrane potential using TMRM probe, (e) membrane integrity by measuring the extracellular LDH, (f) DNA damage by histone H2AX phosphorylation (exclusively in hepatocytes) and (g) imaging of neurite outgrowth (exclusively in neurons).\nThe assays were performed 24 hrs after cell collection and isolation. For apoptosis, TMRM, HOECHST and WST-8 assays, cells were seeded at a density of 5000 cells/well in coated 96-well plates, incubated for 24 hrs with the compound and then stained during 1 hour with the following fluorescent probes: 5 μM CellEvent Caspase 3/7 Green Detection Reagent (Invitrogen) for measuring caspase 3/7 activation, 50 μM tetramethyl rhodamine methyl ester (TMRM probe, Anaspec Inc.) for measuring mitochondrial depolarization related to transient cytosolic Ca^2+ signals, 5 μg/mL of HOECHST (Sigma-Aldrich) for nuclei detection and 10 μL/well of WST-8 reagent (Sigma-Aldrich) to detect viable cells. Then, absorbance at 450 nm was measured in order to analyse cell viability (WST-8). Cells were washed three times and analysed using the automatic fluorescence microscope BD Pathway 855. Pictures were taken using a 20 X objective and 488/515 nm ex/em filters for CellEvent Caspase 3/7 reagent, 555/ 645 nm ex/em filters for TMRM and 380/460 nm ex/em filters for HOECHST. Data were analysed with AttoVision (Becton Dickinson). The LDH assay was performed according to the manufacturer's protocol, Cytotoxicity Detection Kit LDH (Roche). LDH release was measured in mU/L in culture media obtained from cells subjected to treatments for 24 hrs, by measuring the released LDH rate of oxidation of NADH to NAD^+ at 340 nm using Synergy 2 from BioTech.\nFor the neurite outgrowth assay, samples were washed with PBS, fixed using methanol for 10 mins at -20°C. The fixed samples were washed three times with PBS and permeabilized with PBS-Triton X-100 0.3% for 10 mins, washed three times and then blocked with BSA 0.5% in PBS for 30 mis. […] Neurite average length was calculated using the neurite outgrowth module of AttoVision software (Becton Dickinson).\nNimesulide (400 μM) was included as a positive toxicity control, and the vehicle as a negative control. The relative percentage of deviation from the negative control was quantified and assigned with a number from 0 to 5 according to the following criteria: 0 (0–20% deviation), 1 (20–40%), 2 (40–60%), 3 (60–100%), 4 (100–1000%), or 5 (>1000% deviation). […]"}, "[7]": {"conditions": "single dose 10 μM, 200 μM NAD+, 10 μM peptide"}},
  "data": [
    {"smiles": "O=C1c2cccc3cccc(c23)C(=O)N1CCCNCCCCNCCCNCCCN1C(=O)c2cccc3cccc(c23)C1=O", "note": "[Compound 9, BNIP Spermidine]", "values": [
      {"measurement": "Neurotoxicity (Neurons) cytotoxicity", "setting": "[1]", "value": "≥ 3.9", "unit": "µM"},
      {"measurement": "inhibition at 50 µM", "setting": "[2]; 50 μM", "value": "72 ± 6", "unit": "%"},
      {"measurement": "Inhibition of NAD+-dependent deacetylase activity of TcSir2rp1", "setting": "[2]; [7]", "value": "statistically significant inhibition"},
      {"measurement": "inhibition at 10 µM", "setting": "[2]; [7]", "value": "~50", "unit": "%"},
      {"measurement": "Nephotoxicity (MDCK cells) cytotoxicity", "setting": "[3]", "value": "≥ 100", "unit": "µM"},
      {"measurement": "selectivity ratio", "setting": "[4]", "value": 35.2},
      {"measurement": "hERG channel functional", "setting": "[5]", "value": 99.6, "unit": "%"},
      {"measurement": "Cardiotoxicity (hERG predictor)", "setting": "[5]; fluorescence polarization competition, 2 hrs RT", "value": "0.36 ± 0.51", "unit": "%"},
      {"measurement": "Concentration from which toxicity was most significant in neurons", "setting": "[6]; HCS panel", "value": 12.5, "unit": "µM"},
      {"measurement": "Concentration up to which no effects in neurons", "setting": "[6]; HCS panel", "value": 0.7, "unit": "µM"},
      {"measurement": "Injury score for neurons", "setting": "[6]; at higher concentrations (50 μM)", "value": "high levels"},
      {"measurement": "Injury score for neurons", "setting": "[6]; combined score of cytotoxicity panel, 24 hrs", "value": "moderate injury (moderate injury (≥5-to <12))"}
    ]}
  ]
}
